Laboratory results: ChEMBL document CHEMBL1124638, “2,4-Diamino-5-benzylpyrimidines and analogues as antibacterial agents. 10. 2,4-Diamino-5-(6-quinolylmethyl)- and -[(tetrahydro-6-quinolyl)methyl]pyrimidine derivatives. Further specificity studies” (J Med Chem, 1989)

Legend:
[1] = tested on: Vibrio cholerae; assay: Comparative in vitro antibacterial activity with trimethoprim against Vibrio cholerae ATCC 14035; assay type: functional
[2] = tested on: Staphylococcus aureus; assay: Comparative in vitro antibacterial activity with trimethoprim against Staphylococcus aureus CN491; assay type: functional
[3] = tested on: Enterococcus faecalis; assay: Comparative in vitro antibacterial activity with trimethoprim against Streptococcus faecalis CN478; assay type: functional
[4] = tested on: Mycolicibacterium smegmatis; assay: Comparative in vitro antibacterial activity with trimethoprim against Mycobacterium smegmatis S 3254; assay type: functional
[5] = tested on: Klebsiella pneumoniae; assay: Comparative in vitro antibacterial activity with trimethoprim against Klebsiella pneumoniae CN3632; assay type: functional
[6] = tested on: Escherichia coli; assay: Comparative in vitro antibacterial activity with trimethoprim against Escherichia coli CN314; assay type: functional
[7] = tested on: Proteus mirabilis; assay: Comparative in vitro antibacterial activity with trimethoprim against Proteus mirabilis S2409; assay type: functional
[8] = tested on: Streptococcus pyogenes; assay: Comparative in vitro antibacterial activity of compound with trimethoprim against Streptococcus pyogenes CN10; assay type: functional
[9] = tested on: Serratia marcescens; assay: Comparative in vitro antibacterial activity with trimethoprim against Serratia marcescens CN2398; assay type: functional
[10] = biological target: T1, Dihydrofolate reductase (Rattus norvegicus, UniProt Q920D2); assay: Inhibitory activity against dihydrofolate reductase in rat liver; details: read-out: I50
T1 sequence (Q920D2 whole entry): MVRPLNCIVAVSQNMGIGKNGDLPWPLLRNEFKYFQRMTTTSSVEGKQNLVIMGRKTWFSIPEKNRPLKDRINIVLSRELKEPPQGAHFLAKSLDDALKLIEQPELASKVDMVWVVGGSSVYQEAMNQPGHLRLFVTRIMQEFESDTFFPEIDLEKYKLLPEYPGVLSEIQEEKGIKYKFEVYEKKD

[11] = tested on: Klebsiella aerogenes; assay: Comparative in vitro antibacterial activity with trimethoprim against Enterobacter aerogenes 2200/86; assay type: functional
[12] = tested on: Citrobacter freundii; assay: Comparative in vitro antibacterial activity with trimethoprim against Citrobacter freundii 2200/77; assay type: functional
[13] = tested on: Bordetella bronchiseptica; assay: Comparative in vitro antibacterial activity with trimethoprim against Bordetella bronchiseptica CN385; assay type: functional
[14] = tested on: Streptococcus agalactiae; assay: Comparative in vitro antibacterial activity with trimethoprim against Streptococcus agalactiae CN1143; assay type: functional
[15] = Comparative in vitro antibacterial activity with trimethoprim against Salmonella typhi CN512; assay type: functional, salmonella typhosa
[16] = tested on: Pasteurella multocida; assay: Comparative in vitro antibacterial activity with trimethoprim against Pasteurella multocida ATCC 6587; assay type: functional
[17] = tested on: Shigella flexneri; assay: Comparative in vitro antibacterial activity with trimethoprim against Shigella flexneri CN6007; assay type: functional
[18] = tested on: Proteus vulgaris; assay: Comparative in vitro antibacterial activity with trimethoprim against Proteus vulgaris CN329; assay type: functional
[19] = tested on: Salmonella typhimurium; assay: Comparative in vitro antibacterial activity with trimethoprim against Salmonella Typhimurium S 8587; assay type: functional, Salmonella enterica subsp. enterica serovar Typhimurium; details: Salmonella enterica
[20] = biological target: Dihydrofolate reductase (Neisseria gonorrhoeae, UniProt P04174); assay: Inhibitory activity against Dihydrofolate reductase in Neisseria gonorrhoeae; details: read-out: I50
Dihydrofolate reductase (Neisseria gonorrhoeae, UniProt P04174), sequence (P04174 whole entry): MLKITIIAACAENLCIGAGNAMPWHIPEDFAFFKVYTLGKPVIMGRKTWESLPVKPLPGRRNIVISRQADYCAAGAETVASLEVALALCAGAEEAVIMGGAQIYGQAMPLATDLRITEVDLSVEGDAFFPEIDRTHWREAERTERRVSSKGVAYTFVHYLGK

Cc1ccnc2ccc(Cc3cnc(N)nc3N)c(N)c12
> 10 µg/mL: MIC [9]
30 µg/mL: MIC [2] | MIC [7] | MIC [8]
15 µM: IC50 [10]
100 µg/mL: MIC [1] | MIC [4] | MIC [5] | MIC [6] | MIC [12] | MIC [14] | MIC [15] | MIC [17] | MIC [19]
10 µg/mL: MIC [3]
300 µg/mL: MIC [11] | MIC [16]
> 100 µg/mL: MIC [13] | MIC [18]

COc1cc(Cc2cnc(N)nc2N)cc2c1N(C)CCC2C (configuration not stated)
3 µg/mL: MIC [1] | MIC [4] | MIC [5] | MIC [6] | MIC [7] | MIC [9] | MIC [11] | MIC [12] | MIC [13] | MIC [15] | MIC [16]
0.89 µM: IC50 [20]
10 µg/mL: MIC [17] | MIC [18] | MIC [19]
1 µg/mL: MIC [2]
0.3 µg/mL: MIC [3] | MIC [14]

CN1CCCc2cc(Cc3cnc(N)nc3N)ccc21
30 µg/mL: MIC [5] | MIC [6] | MIC [9] | MIC [11] | MIC [12] | MIC [13] | MIC [15] | MIC [16] | MIC [18] | MIC [19]
3 µg/mL: MIC [3]
0.95 µM: IC50 [20]
89 µM: IC50 [10]
10 µg/mL: MIC [1] | MIC [2] | MIC [4] | MIC [7] | MIC [14] | MIC [17]

CC1CCNc2ccc(Cc3cnc(N)nc3N)cc21 (configuration not stated)
10 µg/mL: MIC [7] | MIC [9] | MIC [11] | MIC [13] | MIC [15] | MIC [18] | MIC [19]
1 µg/mL: MIC [8]
3 µg/mL: MIC [1] | MIC [2] | MIC [3] | MIC [4] | MIC [14] | MIC [16]
30 µg/mL: MIC [5] | MIC [6] | MIC [12] | MIC [17]
0.4 µM: IC50 [20]
22 µM: IC50 [10]

CCOC(=O)C1CNc2c(cc(Cc3cnc(N)nc3N)cc2OC)C1 (configuration not stated)
10 µg/mL: MIC [11] | MIC [12] | MIC [14] | MIC [17]
3 µg/mL: MIC [8]
> 30 µg/mL: MIC [7]
100 µg/mL: MIC [5] | MIC [15]
44 µM: IC50 [10]
30 µg/mL: MIC [1] | MIC [2] | MIC [3] | MIC [4] | MIC [6] | MIC [16] | MIC [19]
> 100 µg/mL: MIC [13] | MIC [18]
> 10 µg/mL: MIC [9]

COc1cc(Cc2cnc(N)nc2N)cc2c1NCCC2C (configuration not stated)
10 µg/mL: MIC [12] | MIC [13] | MIC [15] | MIC [17] | MIC [18] | MIC [19]
3 µg/mL: MIC [5] | MIC [6] | MIC [7] | MIC [9] | MIC [11] | MIC [16]
1 µg/mL: MIC [1] | MIC [2] | MIC [3] | MIC [4] | MIC [8] | MIC [14]

Cc1ccnc2ccc(Cc3cnc(N)nc3N)cc12
1 µg/mL: MIC [1] | MIC [2] | MIC [3] | MIC [4] | MIC [5] | MIC [7] | MIC [9] | MIC [13] | MIC [14] | MIC [15] | MIC [16] | MIC [18]
22 µM: IC50 [10]
3 µg/mL: MIC [6] | MIC [8] | MIC [11] | MIC [12] | MIC [17] | MIC [19]

Cc1ccnc2c(N)cc(Cc3cnc(N)nc3N)cc12
32 µM: IC50 [10]
3 µg/mL: MIC [1] | MIC [2] | MIC [3] | MIC [18]
10 µg/mL: MIC [4] | MIC [5] | MIC [6] | MIC [11] | MIC [12] | MIC [14] | MIC [15] | MIC [16]
30 µg/mL: MIC [9] | MIC [13] | MIC [17] | MIC [19]
1 µg/mL: MIC [7]

COCCOc1cc(Cc2cnc(N)nc2N)cc2cccnc12
3 µg/mL: MIC [3] | MIC [4] | MIC [8]
300 µg/mL: MIC [12]
> 100 µg/mL: MIC [18]
100 µg/mL: MIC [5] | MIC [6] | MIC [11] | MIC [15] | MIC [17] | MIC [19]
> 10 µg/mL: MIC [9]
9.9 µM: IC50 [10]
> 30 µg/mL: MIC [7]
30 µg/mL: MIC [1] | MIC [13] | MIC [16]
10 µg/mL: MIC [2] | MIC [14]

Nc1ncc(Cc2ccc3ncccc3c2)c(N)n1
0.3 µg/mL: MIC [4]
3 µg/mL: MIC [1] | MIC [3] | MIC [5] | MIC [6] | MIC [7] | MIC [8] | MIC [9] | MIC [11] | MIC [14]
30 µg/mL: MIC [2]
18 µM: IC50 [10]
10 µg/mL: MIC [12] | MIC [13] | MIC [15] | MIC [16] | MIC [17] | MIC [18] | MIC [19]

COCCN1CCC(C)c2cc(Cc3cnc(N)nc3N)cc(OC)c21 (configuration not stated)
> 10 µg/mL: MIC [9]
1 µg/mL: MIC [8]
30 µg/mL: MIC [5] | MIC [6] | MIC [11] | MIC [15] | MIC [16]
100 µg/mL: MIC [1] | MIC [12] | MIC [13] | MIC [17] | MIC [19]
3 µg/mL: MIC [2] | MIC [14]
260 µM: IC50 [10]
0.3 µg/mL: MIC [3]
10 µg/mL: MIC [4]
> 100 µg/mL: MIC [18]
1.4 µM: IC50 [20]

CCOC(=O)C1CNc2c(OC)cc(Cc3cnc(N)nc3N)c(OC)c2C1 (configuration not stated)
142 µM: IC50 [10]
1.9 µM: IC50 [20]

Nc1ncc(Cc2ccc3c(c2)CCCN3)c(N)n1
140 µM: IC50 [10]
30 µg/mL: MIC [2] | MIC [6] | MIC [17]
3 µg/mL: MIC [4]
10 µg/mL: MIC [1] | MIC [3] | MIC [5] | MIC [7] | MIC [8] | MIC [9] | MIC [11] | MIC [12] | MIC [13] | MIC [14] | MIC [15] | MIC [16] | MIC [18] | MIC [19]

COc1cc(Cc2cnc(N)nc2N)cc2c(C)ccnc12
3 µg/mL: MIC [12] | MIC [13] | MIC [19]
0.3 µg/mL: MIC [1] | MIC [2] | MIC [4]
1 µg/mL: MIC [3] | MIC [5] | MIC [6] | MIC [7] | MIC [8] | MIC [9] | MIC [11] | MIC [14] | MIC [15] | MIC [16] | MIC [17] | MIC [18]

CCN1CCC(C)c2cc(Cc3cnc(N)nc3N)ccc21 (configuration not stated)
38 µM: IC50 [10]
3 µg/mL: MIC [2] | MIC [3] | MIC [14]
> 30 µg/mL: MIC [9]
0.69 µM: IC50 [20]
10 µg/mL: MIC [1] | MIC [4]
100 µg/mL: MIC [5] | MIC [6] | MIC [11] | MIC [12] | MIC [13] | MIC [15] | MIC [17] | MIC [18] | MIC [19]
30 µg/mL: MIC [7] | MIC [16]

Cc1ccnc2c([N+](=O)[O-])cc(Cc3cnc(N)nc3N)cc12
3 µg/mL: MIC [3] | MIC [13] | MIC [15] | MIC [16]
10 µg/mL: MIC [5] | MIC [6] | MIC [7] | MIC [11] | MIC [12] | MIC [17] | MIC [18] | MIC [19]
1 µg/mL: MIC [1] | MIC [2] | MIC [4] | MIC [8] | MIC [14]
5.7 µM: IC50 [10]
30 µg/mL: MIC [9]

COc1cc(Cc2cnc(N)nc2N)cc2cccnc12
3 µg/mL: MIC [2] | MIC [3] | MIC [5] | MIC [6] | MIC [7] | MIC [8] | MIC [11] | MIC [14] | MIC [15] | MIC [16] | MIC [17] | MIC [18] | MIC [19]
12 µM: IC50 [10]
10 µg/mL: MIC [12]
1 µg/mL: MIC [1] | MIC [4] | MIC [9]
30 µg/mL: MIC [13]

COc1cc(Cc2cnc(N)nc2N)cc2c(C)cc(C)nc12
3 µg/mL: MIC [6] | MIC [11] | MIC [12] | MIC [13] | MIC [17] | MIC [18] | MIC [19]
43 µM: IC50 [10]
0.1 µg/mL: MIC [8]
0.3 µg/mL: MIC [1] | MIC [2] | MIC [7]
1 µg/mL: MIC [3] | MIC [4] | MIC [5] | MIC [9] | MIC [14] | MIC [15] | MIC [16]
